Assay results: patent publication US20090291083A1, “BARB4 TARGET, ANTIBODY DESIGNATED BARB4, BARB4 RELATED ANTIBODIES, AND METHODS OF MAKING AND USING SAME” (PATRYS LIMITED, priority 2008, published 2009)
pIC50: −log10 of the molar value. Where two headings read alike, the source gives them in different places.

Columns and labels:
Test in all cases: MTT cell proliferation assay (Table 2)
Assay type in all cases: cell-based, human
COLO 205 = tested on: COLO 205
Method: (§1) BARB4 was also evaluated for inhibition of proliferation of other cancer cell lines, including BxPC-3, COLO 205, H460, MDA-MB-231 and MIAPaCa-2 cells, as well as HT-29, HCT-116, BxPC-3, PANC-1, A549, PC-3 and HCT116 cells. In brief, various human cancer cell lines obtained from the American Type Culture Collection (ATCC) were established using standard in vitro culture methods and ATCC recommended media in 175 cm2 BD tissue culture treated flasks. In particular, MDAMB-231 cultures were incubated in a humidified 37° C., 100% air incubator, and BxPC-3, COLO 205, H460 and MIAPaCa-2 cultures were incubated in a humidified 37° C., 5% CO2, 95% air incubator. Cultures were sub-cultivated regularly to maintain log phase growth. All cell lines were brought up from cryopreservation using the original recommended ATCC media type and supplements. Cell line specific seeding densities were based on historical data from MIR Preclinical Services for growth over a 72 hr period.
(§2) On the day of IC50 plate seeding, the adherent cells were removed from the flasks for each cell line using trypsin EDTA, 1× (Cell Gro #25-053-CI). Trypsin was deactivated using complete media and the cells were pooled (each line done separately). The pooled cells in complete media were counted using trypan blue exclusion with a Neubauer Bright-Line® hemacytometer. The percent viability for each cell line was as follows:
(§3) Based on live cell counts, each suspension was then diluted in complete media (containing required supplements) to achieve the desired seeding density for each cell line. Once seeded, the cells were allowed to attach to the plates overnight and then treated with BA4 or cisplatin 24 hr post-seeding.
(§4) BARB4 was serially diluted 1:2 (2× final conc. in dilution reservoir=1600 μg/ml) in media to achieve a final 800 μg/ml starting concentration in the top dosage wells of the treatment plate by diluting 1:2 when transferred from the reservoir to the treatment plate. Antibody was added to columns 1 through 10 of the treatment plate. Column 11 was for cells+media only control and column 12 was for a media only blank. Cisplatin (positive control) was manufactured by Sigma (# M4394, lot 087K1349) and supplied as a fine, dark yellow powder, in an amber vial, stored at room temperature and housed in a covered box to prevent exposure to light. Cisplatin was previously dissolved in 0.9% saline to make a clear, colorless 4 mM stock solution, aliquoted and frozen at −20° C. Frozen aliquots were quickly thawed by holding the tubes in hand, placed on wet ice and diluted (2× conc. dilution reservoir) to achieve a final 1 mM starting concentration in the top dosage wells of the treatment plate (diluted 1:2 when transferred from the dilution reservoir to the treatment plate). Serial dilutions of 1:4 were made from wells 1 through 10 of the dilution reservoir prior to transfer to the treatment plate.
(§5) The BARB4 stock solution (10.5 mg/ml) was prepared by dilution in complete media according to the table below for a final starting treatment concentration of 800 μg/ml. The 4 mM stock solution of cisplatin in 0.9% saline was diluted in complete media for a final starting treatment concentration of 1 mM.
(§6) Cells were exposed to BARB4 or cisplatin for a 24 hr period. The plates were incubated overnight at 37° C. At 24 hr and 48 hr post-treatment, the MTT assay was performed as described below.
(§7) The anti-proliferative activity of BARB4 and cisplatin was evaluated using the MTT cell proliferation assay (ATCC catalog #30-1010K). The assay is based on the reduction of yellow tetrazolium MTT (3-(4,5-dimethylthiazolyl-2)-2,5-diphenyltetrazolium bromide) by metabolically active cells forming purple formazan crystals. […]

MIAPaCa-2 = tested on: MIAPaCa-2
Method: as §1, §2, §3, §4, §5, §6, §7

MDA-MB-231 = tested on: MDA-MB-231
Method: as §1, §2, §3, §4, §5, §6, §7

H460 = tested on: H460
Method: as §1, §2, §3, §4, §5, §6, §7

BxPC-3 = tested on: BxPC-3
Method: as §1, §2, §3, §4, §5, §6, §7

[1] = MTT 24 hr post-treatment, read-out: IC50, Cisplatin (24 hr)
[2] = MTT 48 hr post-treatment, read-out: IC50, Cisplatin (48 hr)

Compound N.N.[Cl][Pt][Cl] [Cisplatin, reference compound] has a pIC50 (COLO 205; [1]) of 4.23, a pIC50 (COLO 205; [2]) of 4.20 and a pIC50 (MIAPaCa-2; [1]) of 4.36. For the same compound, the pIC50 (MIAPaCa-2; [2]) was 4.53, the pIC50 (MDA-MB-231; [1]) was 4.01 and the pIC50 (MDA-MB-231; [2]) was 3.63. The pIC50 (H460; [1]) was 4.20, the pIC50 (H460; [2]) was 5.20 and the pIC50 (BxPC-3; BxPC-3, MTT 24 hr post-treatment, read-out: IC50, Cisplatin (24 hr)) was 4.41. For the same compound, the pIC50 (BxPC-3; BxPC-3, MTT 48 hr post-treatment, read-out: IC50, Cisplatin (48 hr)) was 5.03, the pIC50 (BxPC-3; BxPC-3 repeat, MTT 24 hr post-treatment, read-out: IC50, Cisplatin (24 hr)) was 4.87 and the pIC50 (BxPC-3; BxPC-3 repeat, MTT 48 hr post-treatment, read-out: IC50, Cisplatin (48 hr)) was 5.25.
